Source: ChEMBL document CHEMBL5442334, “ASAP - In vitro safety pharmacology profile” (2024)

Assays:
[1] = target: T1, Amine oxidase [flavin-containing] A (Rattus norvegicus, UniProt P21396); assay: SafetyScreen: Monoamine Oxidase A (MAO-A) Rat Binding Antagonist Radioligand LeadHunter Assay, catalogue number: 443; conditions: at 10 µM, test compound concentration 10 uM
T1 sequence (P21396 whole entry): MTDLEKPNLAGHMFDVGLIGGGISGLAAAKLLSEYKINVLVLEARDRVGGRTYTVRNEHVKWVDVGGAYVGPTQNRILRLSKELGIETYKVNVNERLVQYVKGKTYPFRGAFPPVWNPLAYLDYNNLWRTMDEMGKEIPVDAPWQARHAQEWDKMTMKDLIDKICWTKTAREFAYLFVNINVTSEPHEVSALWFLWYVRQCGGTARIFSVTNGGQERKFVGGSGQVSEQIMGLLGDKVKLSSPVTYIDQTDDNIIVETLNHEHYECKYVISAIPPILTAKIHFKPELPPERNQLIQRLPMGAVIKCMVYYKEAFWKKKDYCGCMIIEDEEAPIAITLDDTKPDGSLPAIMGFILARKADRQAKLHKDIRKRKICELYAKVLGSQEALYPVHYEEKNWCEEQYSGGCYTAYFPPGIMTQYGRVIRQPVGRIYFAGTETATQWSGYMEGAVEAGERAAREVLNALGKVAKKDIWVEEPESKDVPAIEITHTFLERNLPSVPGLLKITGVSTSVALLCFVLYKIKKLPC

[2] = target: Beta-1 adrenergic receptor (Homo sapiens) (UniProt P08588); assay: SafetyScreen: beta1 Human Adrenoceptor GPCR Binding Agonist Radioligand LeadHunter Assay, catalogue number: 18; conditions: Test compound concentration 10.0 uM
Sequence of Beta-1 adrenergic receptor (Homo sapiens) (P08588 whole entry, looked up): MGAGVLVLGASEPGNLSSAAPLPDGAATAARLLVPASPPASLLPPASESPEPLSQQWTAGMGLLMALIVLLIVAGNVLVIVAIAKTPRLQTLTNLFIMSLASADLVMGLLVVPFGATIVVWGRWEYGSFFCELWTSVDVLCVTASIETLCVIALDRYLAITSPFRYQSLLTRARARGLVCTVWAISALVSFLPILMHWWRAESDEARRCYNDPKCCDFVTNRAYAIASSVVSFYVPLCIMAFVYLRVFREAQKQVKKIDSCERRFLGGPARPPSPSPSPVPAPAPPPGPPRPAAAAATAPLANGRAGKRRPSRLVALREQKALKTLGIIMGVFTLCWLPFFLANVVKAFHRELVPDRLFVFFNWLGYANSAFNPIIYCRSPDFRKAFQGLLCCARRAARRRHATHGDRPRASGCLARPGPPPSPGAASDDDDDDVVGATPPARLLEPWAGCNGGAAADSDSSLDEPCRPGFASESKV

[3] = target: Adenosine receptor A2a (Homo sapiens) (UniProt P29274); assay: SafetyScreen: A2A Human Adenosine GPCR Binding Agonist Radioligand LeadHunter Assay, catalogue number: 4; conditions: Test compound concentration 10.0 uM
[4] = target: T2, Cholecystokinin receptor type A (Homo sapiens) (UniProt P32238); assay: SafetyScreen: CCK1 (CCKA) Human Cholecystokinin GPCR Binding Agonist Radioligand LeadHunter Assay, catalogue number: 39; conditions: Test compound concentration 10.0 uM
T2 sequence (whole entry): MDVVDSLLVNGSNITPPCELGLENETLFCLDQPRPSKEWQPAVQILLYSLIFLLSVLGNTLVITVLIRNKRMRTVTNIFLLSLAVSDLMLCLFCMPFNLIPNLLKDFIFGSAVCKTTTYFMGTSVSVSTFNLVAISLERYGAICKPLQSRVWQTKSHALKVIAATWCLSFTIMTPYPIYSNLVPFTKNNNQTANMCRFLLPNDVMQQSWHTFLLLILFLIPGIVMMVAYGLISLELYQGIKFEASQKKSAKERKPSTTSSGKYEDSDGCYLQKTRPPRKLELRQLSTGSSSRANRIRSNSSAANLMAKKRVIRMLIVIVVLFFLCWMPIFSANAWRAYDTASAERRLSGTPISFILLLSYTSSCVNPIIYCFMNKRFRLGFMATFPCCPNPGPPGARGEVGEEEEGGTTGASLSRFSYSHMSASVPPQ

[5] = target: Kappa-type opioid receptor (Homo sapiens) (UniProt P41145); assay: SafetyScreen: kappa (KOP) Human Opioid GPCR Binding Agonist Radioligand LeadHunter Assay, catalogue number: 4461; conditions: Test compound concentration 10.0 uM
[6] = target: D(1A) dopamine receptor (Homo sapiens) (UniProt P21728); assay: SafetyScreen: D1 Human Dopamine GPCR Binding Antagonist Radioligand LeadHunter Assay, catalogue number: 44; conditions: Test compound concentration 10.0 uM
Sequence of D(1A) dopamine receptor (Homo sapiens) (P21728 whole entry): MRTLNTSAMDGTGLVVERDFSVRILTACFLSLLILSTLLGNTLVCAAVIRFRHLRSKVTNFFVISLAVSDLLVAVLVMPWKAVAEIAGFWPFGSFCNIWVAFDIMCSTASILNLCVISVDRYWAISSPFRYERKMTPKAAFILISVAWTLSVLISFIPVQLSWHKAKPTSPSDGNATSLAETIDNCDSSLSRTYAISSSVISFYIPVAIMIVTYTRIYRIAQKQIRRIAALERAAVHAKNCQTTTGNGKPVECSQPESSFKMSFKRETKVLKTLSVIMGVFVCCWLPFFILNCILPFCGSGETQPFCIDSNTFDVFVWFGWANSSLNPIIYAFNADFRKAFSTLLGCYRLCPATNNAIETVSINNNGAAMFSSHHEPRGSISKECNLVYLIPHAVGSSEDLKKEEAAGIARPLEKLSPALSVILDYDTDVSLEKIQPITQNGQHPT

[7] = target: Mu-type opioid receptor (Homo sapiens) (UniProt P35372); assay: SafetyScreen: mu (MOP) Human Opioid GPCR Binding Agonist Radioligand LeadHunter Assay, catalogue number: 118; conditions: Test compound concentration 10.0 uM
Sequence of Mu-type opioid receptor (Homo sapiens) (P35372 whole entry): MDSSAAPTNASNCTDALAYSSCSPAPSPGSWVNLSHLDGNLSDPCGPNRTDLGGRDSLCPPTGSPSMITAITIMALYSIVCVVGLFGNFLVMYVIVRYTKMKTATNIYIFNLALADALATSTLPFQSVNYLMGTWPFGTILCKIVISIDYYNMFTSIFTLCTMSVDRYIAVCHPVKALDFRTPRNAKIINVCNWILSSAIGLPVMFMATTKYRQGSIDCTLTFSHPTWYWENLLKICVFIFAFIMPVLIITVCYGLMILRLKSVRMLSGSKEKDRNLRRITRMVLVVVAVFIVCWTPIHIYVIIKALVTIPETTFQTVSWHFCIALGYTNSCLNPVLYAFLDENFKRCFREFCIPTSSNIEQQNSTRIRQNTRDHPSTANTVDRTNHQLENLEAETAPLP

[8] = target: Voltage-gated L-type calcium channel (Rattus norvegicus, UniProt P22002+Q02485+P27732); assay: SafetyScreen: Cav1.2 (L-type) Rat Calcium Ion Channel Binding (Dihydropyridine Site) LeadHunter Assay, catalogue number: 161; type: protein assay; conditions: at 10 µM, test compound concentration 10 uM
[9] = target: Voltage-gated inwardly rectifying potassium channel KCNH2 (Homo sapiens, UniProt Q12809); assay: SafetyScreen: hERG Human Potassium Ion Channel [3H] Dofetilide Binding Antagonist Radioligand SafetyScreen, catalogue number: 4094; conditions: at 10 µM, test compound concentration 10 uM
Sequence of Voltage-gated inwardly rectifying potassium channel KCNH2 (Q12809 whole entry): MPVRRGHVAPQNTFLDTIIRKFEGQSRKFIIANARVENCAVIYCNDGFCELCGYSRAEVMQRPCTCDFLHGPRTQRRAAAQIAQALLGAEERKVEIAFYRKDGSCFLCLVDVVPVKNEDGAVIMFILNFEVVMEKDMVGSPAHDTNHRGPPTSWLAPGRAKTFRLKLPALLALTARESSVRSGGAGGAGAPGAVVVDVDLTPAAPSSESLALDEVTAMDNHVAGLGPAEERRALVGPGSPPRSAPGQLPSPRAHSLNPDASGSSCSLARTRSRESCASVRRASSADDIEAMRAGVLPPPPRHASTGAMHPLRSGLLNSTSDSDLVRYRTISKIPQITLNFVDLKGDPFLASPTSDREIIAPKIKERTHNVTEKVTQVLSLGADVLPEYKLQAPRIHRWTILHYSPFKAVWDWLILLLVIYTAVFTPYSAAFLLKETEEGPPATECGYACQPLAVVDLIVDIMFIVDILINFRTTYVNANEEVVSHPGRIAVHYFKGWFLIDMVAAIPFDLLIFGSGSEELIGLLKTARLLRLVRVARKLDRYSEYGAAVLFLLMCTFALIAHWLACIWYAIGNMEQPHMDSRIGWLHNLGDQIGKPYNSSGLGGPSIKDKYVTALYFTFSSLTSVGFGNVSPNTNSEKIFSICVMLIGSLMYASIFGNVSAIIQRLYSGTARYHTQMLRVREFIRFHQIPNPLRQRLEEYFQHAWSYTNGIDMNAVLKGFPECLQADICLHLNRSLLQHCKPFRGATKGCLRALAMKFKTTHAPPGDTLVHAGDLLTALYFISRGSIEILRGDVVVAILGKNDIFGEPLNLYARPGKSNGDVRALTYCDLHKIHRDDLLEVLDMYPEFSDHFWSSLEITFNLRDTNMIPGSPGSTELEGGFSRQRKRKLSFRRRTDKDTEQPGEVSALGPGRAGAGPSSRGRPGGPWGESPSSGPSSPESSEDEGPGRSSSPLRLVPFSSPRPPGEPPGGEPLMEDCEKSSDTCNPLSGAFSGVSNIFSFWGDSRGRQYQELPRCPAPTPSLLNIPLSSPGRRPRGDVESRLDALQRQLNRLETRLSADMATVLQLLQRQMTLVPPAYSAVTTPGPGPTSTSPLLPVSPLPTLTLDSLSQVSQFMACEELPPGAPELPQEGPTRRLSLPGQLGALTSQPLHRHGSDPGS

[10] = target: T3, Alpha-1A adrenergic receptor (Homo sapiens) (UniProt P35348); assay: SafetyScreen: alpha1A Human Adrenoceptor GPCR Binding Antagonist Radioligand LeadHunter Assay, catalogue number: 2338; conditions: Test compound concentration 10.0 uM
T3 sequence (whole entry): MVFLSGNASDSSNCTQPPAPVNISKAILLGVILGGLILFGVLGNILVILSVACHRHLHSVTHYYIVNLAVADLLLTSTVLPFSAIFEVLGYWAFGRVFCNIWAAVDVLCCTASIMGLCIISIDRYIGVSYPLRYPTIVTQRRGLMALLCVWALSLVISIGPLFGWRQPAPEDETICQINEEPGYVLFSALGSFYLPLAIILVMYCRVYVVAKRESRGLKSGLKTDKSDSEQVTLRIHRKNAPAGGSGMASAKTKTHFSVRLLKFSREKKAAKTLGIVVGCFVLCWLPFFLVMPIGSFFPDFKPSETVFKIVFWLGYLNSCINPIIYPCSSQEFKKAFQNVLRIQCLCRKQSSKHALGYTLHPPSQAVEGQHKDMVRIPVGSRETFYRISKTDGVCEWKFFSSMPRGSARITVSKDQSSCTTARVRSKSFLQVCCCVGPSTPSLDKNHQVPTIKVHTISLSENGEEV

[11] = target: 3',5'-cyclic-AMP phosphodiesterase 4D (Homo sapiens) (UniProt Q08499); assay: SafetyScreen: PDE4D2 Human Phosphodiesterase Enzymatic LeadHunter Assay, catalogue number: 4077; type: functional; conditions: Test compound concentration 10.0 uM
Sequence of 3',5'-cyclic-AMP phosphodiesterase 4D (Homo sapiens) (Q08499 whole entry): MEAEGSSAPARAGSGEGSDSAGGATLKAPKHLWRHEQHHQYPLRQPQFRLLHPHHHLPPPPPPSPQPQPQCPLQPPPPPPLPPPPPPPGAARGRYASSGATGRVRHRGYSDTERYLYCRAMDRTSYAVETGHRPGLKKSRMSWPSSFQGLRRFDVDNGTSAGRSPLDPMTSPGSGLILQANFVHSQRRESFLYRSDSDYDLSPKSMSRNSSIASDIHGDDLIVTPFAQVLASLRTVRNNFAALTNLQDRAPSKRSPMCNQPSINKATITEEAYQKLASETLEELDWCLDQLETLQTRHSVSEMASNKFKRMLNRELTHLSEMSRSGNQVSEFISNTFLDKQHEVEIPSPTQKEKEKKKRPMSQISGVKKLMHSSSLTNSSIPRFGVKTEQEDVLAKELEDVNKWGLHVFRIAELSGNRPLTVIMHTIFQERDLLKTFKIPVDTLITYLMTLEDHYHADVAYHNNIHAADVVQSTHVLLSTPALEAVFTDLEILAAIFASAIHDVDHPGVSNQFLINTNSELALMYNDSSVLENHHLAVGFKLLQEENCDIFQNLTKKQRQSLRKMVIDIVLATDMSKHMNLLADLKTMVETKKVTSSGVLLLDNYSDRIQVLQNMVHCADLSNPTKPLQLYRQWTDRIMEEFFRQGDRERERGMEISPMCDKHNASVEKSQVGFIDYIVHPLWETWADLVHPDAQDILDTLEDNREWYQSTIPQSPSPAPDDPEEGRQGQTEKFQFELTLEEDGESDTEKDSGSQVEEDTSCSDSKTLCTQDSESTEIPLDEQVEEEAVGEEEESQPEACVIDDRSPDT

[12] = target: 5-hydroxytryptamine receptor 2B (Homo sapiens) (UniProt P41595); assay: SafetyScreen: 5-HT2B Human Serotonin GPCR [125I](±)DOI Binding Agonist Radioligand LeadHunter Assay, catalogue number: 1333; conditions: Test compound concentration 10.0 uM
Sequence of 5-hydroxytryptamine receptor 2B (Homo sapiens) (P41595 whole entry): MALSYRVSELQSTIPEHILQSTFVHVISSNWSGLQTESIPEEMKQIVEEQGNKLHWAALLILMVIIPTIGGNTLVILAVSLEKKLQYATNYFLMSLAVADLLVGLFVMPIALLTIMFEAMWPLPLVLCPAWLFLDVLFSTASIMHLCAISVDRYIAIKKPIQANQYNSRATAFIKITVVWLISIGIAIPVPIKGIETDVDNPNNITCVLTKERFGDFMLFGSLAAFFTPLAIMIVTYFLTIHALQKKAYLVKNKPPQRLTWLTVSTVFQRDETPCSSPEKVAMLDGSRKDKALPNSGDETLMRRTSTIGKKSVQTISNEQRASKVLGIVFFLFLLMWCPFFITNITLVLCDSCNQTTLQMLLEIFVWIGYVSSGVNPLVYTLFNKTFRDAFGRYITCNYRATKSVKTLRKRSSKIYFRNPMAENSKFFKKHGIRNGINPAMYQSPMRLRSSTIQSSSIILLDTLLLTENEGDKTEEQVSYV

[13] = target: Histamine H1 receptor (Homo sapiens) (UniProt P35367); assay: SafetyScreen: H1 Human Histamine GPCR Binding Antagonist Radioligand LeadHunter Assay, catalogue number: 870; conditions: Test compound concentration 10.0 uM
Sequence of Histamine H1 receptor (Homo sapiens) (P35367 whole entry): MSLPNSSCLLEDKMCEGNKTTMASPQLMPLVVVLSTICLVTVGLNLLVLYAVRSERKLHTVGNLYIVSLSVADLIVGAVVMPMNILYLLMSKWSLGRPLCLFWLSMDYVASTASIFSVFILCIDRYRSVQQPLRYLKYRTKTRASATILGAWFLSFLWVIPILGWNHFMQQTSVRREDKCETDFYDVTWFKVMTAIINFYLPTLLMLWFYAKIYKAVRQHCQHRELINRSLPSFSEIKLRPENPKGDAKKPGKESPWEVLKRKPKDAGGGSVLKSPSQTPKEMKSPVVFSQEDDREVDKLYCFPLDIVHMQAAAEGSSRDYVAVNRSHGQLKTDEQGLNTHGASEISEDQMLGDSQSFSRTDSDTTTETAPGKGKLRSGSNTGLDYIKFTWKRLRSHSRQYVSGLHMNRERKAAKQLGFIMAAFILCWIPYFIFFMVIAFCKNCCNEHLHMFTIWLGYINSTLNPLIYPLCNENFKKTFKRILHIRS

[14] = target: Cannabinoid receptor 1 (Homo sapiens) (UniProt P21554); assay: SafetyScreen: CB1 Human Cannabinoid GPCR Binding Agonist Radioligand LeadHunter Assay, catalogue number: 4708; conditions: Test compound concentration 10.0 uM
Sequence of Cannabinoid receptor 1 (Homo sapiens) (P21554 whole entry): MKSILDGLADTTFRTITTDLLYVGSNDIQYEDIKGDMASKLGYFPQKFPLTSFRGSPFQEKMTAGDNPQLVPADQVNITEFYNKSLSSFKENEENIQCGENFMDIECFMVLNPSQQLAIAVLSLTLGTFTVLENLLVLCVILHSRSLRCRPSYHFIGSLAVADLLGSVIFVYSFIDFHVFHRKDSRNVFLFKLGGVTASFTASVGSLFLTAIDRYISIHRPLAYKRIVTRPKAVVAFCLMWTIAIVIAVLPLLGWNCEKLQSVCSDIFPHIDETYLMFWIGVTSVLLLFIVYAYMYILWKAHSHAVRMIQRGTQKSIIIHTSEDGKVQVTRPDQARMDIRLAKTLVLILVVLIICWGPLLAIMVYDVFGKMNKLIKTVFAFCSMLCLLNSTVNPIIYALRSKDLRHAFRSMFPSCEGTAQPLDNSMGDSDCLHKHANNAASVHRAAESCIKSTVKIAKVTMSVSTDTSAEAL

Structure (SMILES) | Inhibition [1] | inhibition [2] | inhibition [3] | inhibition [4] | inhibition [5] | inhibition [6] | inhibition [7] | Inhibition [8] | Inhibition [9] | inhibition [10] | inhibition [11] | inhibition [12] | inhibition [13] | inhibition [14]
CC(C)[C@@H](Nc1ncnc2[nH]c(-c3cnn(C)c3C#N)cc12)c1ccc2c(n1)OCCO2 | 8% | -2% | 69% | 20% | 56% | 10% | 77% | 10% | 32% | 11% | 44% | 40% | 0% | 14%
CNC(=O)Cn1cc(-c2cc3c(N[C@@H](c4ccc5c(c4)S(=O)(=O)CCC5)C(C)C)ncnc3[nH]2)cn1 | 8% | 5% | 23% | -4% | 21% | 1% | 3% | -1% | 4% | 11% | 41% | 25% | -5% | -10%
Cn1ncc(-c2cc3c(N[C@@H](c4ccc5c(n4)OCCO5)C(C)(C)C)ncnc3[nH]2)c1C#N | 10% | 11% | 52% | 4% | 33% | 9% | 28% | 21% | 36% | 54% | 20% | -5% | 7% | 33%
C[C@H](C(=O)O)[C@@H](NC(=O)c1ncnc2[nH]ccc12)c1ccc(Br)cc1 | -1% | -5% |  | 6% | 2% | -8% | -10% | -12% | 14% | -8% | 30% | -4% | -8% | 
Cc1nn(C)cc1-c1cc2c(N[C@H](c3ccc4c(c3)S(=O)(=O)CCC4)C(C)C)ncnc2[nH]1 | 5% | 1% | 13% | -8% | 45% | 3% | 28% | 12% | 3% | 8% | 43% | 43% | 0% | 0%
COc1ccc([C@H](Cc2nnn[nH]2)NC(=O)c2ncnc3[nH]ccc23)cc1 | 0% | -3% |  | -5% | 2% |  | -3% | -22% | 5% | -7% | 41% |  | -4% | -8%
CC(C)[C@@H](Nc1ncnc2[nH]c(C(=O)N[C@@H]3CCN(C)C3)cc12)c1ccc2c(c1)S(=O)(=O)CCC2 | 3% | 4% | -4% | 7% | 78% | -3% | 7% | -6% | 7% | 38% | 37% | 6% | 2% | -10%
CNCc1cc(-c2cc3c(N[C@@H](c4ccc5c(c4)S(=O)(=O)CCC5)C(C)C)ncnc3[nH]2)co1 | 11% | -4% | 21% |  | 57% | 14% | -5% | -3% |  | 50% | 43% |  | -3% | 3%
CC(C)[C@H](Nc1ncnc2[nH]c(-c3cnn(C)c3C#N)cc12)c1ccc2c(n1)OCCO2 | 4% | 11% | 84% | 1% | 31% | 27% | 15% | 9% | 29% | 34% | 70% | 18% | 5% | 46%
CC(C)[C@H](Nc1ncnc2[nH]ccc12)c1ccc2c(c1)S(=O)(=O)CCC2 | 7% | 11% | 11% | -2% | 84% | -4% | 8% | 12% | 20% | -2% | 36% | 54% | -3% | 
